System: MV-4-11 cells
Assay: Gene expression microarray analysis (Affymetrix PrimeView) and GSEA
Assay type: cell-based, human
Parameters: RFU PODN (11730768_x_at) / Fold change /veh PODN (11730768_x_at) / RFU LINC00158 (11744669_a_at) / Fold change /veh LINC00158 (11744669_a_at) / RFU DUSP10 (11751237_a_at) / Fold change /veh DUSP10 (11751237_a_at) / RFU ID3 (11757404_x_at) / Fold change /veh ID3 (11757404_x_at) / RFU PLEKHG5 (11737974_s_at) / Fold change /veh PLEKHG5 (11737974_s_at) / RFU LRRC4B (11730491_at) / Fold change /veh LRRC4B (11730491_at) / RFU GIMAP4 (11747438_a_at) / Fold change /veh GIMAP4 (11747438_a_at) / RFU KRT8 (11758183_x_at) / Fold change /veh KRT8 (11758183_x_at) / RFU CNN1 (11734310_a_at) / Fold change /veh CNN1 (11734310_a_at) / RFU VPS37D (11726825_at) / Fold change /veh VPS37D (11726825_at) / RFU C10orf10 (11716522_x_at) / Fold change /veh C10orf10 (11716522_x_at) / RFU KIR2DL2 /// KIR2DL4 /// KIR2DL5A /// KIR2DL5B /// KIR2DS1 /// KIR2DS2 /// KIR2DS3 /// KIR2DS4 /// KIR3DL3 /// KIR3DL3 /// KIR3DS1 (11738374_at) / Fold change /veh KIR2DL2 /// KIR2DL4 /// KIR2DL5A /// KIR2DL5B /// KIR2DS1 /// KIR2DS2 /// KIR2DS3 /// KIR2DS4 /// KIR3DL3 /// KIR3DL3 /// KIR3DS1 (11738374_at) / RFU C1QL1 (11718748_at) / Fold change /veh C1QL1 (11718748_at) / RFU TMPRSS4 (11747572_a_at) / Fold change /veh TMPRSS4 (11747572_a_at) / RFU HAMP (11756126_x_at) / Fold change /veh HAMP (11756126_x_at) / RFU RNFT2 (11725882_a_at) / Fold change /veh RNFT2 (11725882_a_at) / RFU NR4A2 (11747474_a_at) / Fold change /veh NR4A2 (11747474_a_at) / RFU ABCC12 (11746883_a_at) / Fold change /veh ABCC12 (11746883_a_at) / RFU TMEM136 (11760407_x_at) / Fold change /veh TMEM136 (11760407_x_at) / RFU CLDN22 /// WWC2 (11732394_at) / Fold change /veh CLDN22 /// WWC2 (11732394_at) / RFU HLA-DPB1 (11760878_x_at) / Fold change /veh HLA-DPB1 (11760878_x_at) / RFU SPINT1 (11716480_a_at) / Fold change /veh SPINT1 (11716480_a_at) / RFU GAP43 (11754022_s_at) / Fold change /veh GAP43 (11754022_s_at) / RFU A4GNT (11735810_at) / Fold change /veh A4GNT (11735810_at) / RFU PRB3 (11715151_x_at) / Fold change /veh PRB3 (11715151_x_at) / RFU TUBB4B (11761932_at) / Fold change /veh TUBB4B (11761932_at) / RFU CAPN14 (11732068_a_at) / Fold change /veh CAPN14 (11732068_a_at) / RFU TMCC2 (11721928_a_at) / Fold change /veh TMCC2 (11721928_a_at) / RFU IRGQ (11745062_a_at) / Fold change /veh IRGQ (11745062_a_at) / RFU FAM174B (11720279_a_at) / Fold change /veh FAM174B (11720279_a_at) / RFU TMPRSS4 (11748680_a_at) / Fold change /veh TMPRSS4 (11748680_a_at) / RFU FAM212B (11763350_a_at) / Fold change /veh FAM212B (11763350_a_at) / RFU PLEKHG5 (11743358_a_at) / Fold change /veh PLEKHG5 (11743358_a_at) / RFU ZSCAN30 (11745921_a_at) / Fold change /veh ZSCAN30 (11745921_a_at) / RFU CMKLR1 (11741424_a_at) / Fold change /veh CMKLR1 (11741424_a_at) / RFU LOC101060620 /// MAPK8IP1 (11723275_at) / Fold change /veh LOC101060620 /// MAPK8IP1 (11723275_at) / RFU SPTSSB (11747773_x_at) / Fold change /veh SPTSSB (11747773_x_at) / RFU PRSS12 (11739890_at) / Fold change /veh PRSS12 (11739890_at) / RFU BIN1 (11741810_x_at) / Fold change /veh BIN1 (11741810_x_at) / RFU WNT11 (11732464_a_at) / Fold change /veh WNT11 (11732464_a_at) / RFU C10orf10 (11716521_a_at) / Fold change /veh C10orf10 (11716521_a_at) / RFU C5orf56 (11738089_at) / Fold change /veh C5orf56 (11738089_at) / RFU CYB561 (11721691_x_at) / Fold change /veh CYB561 (11721691_x_at) / RFU ANKRD19P (11752326_a_at) / Fold change /veh ANKRD19P (11752326_a_at) / RFU OR2T12 /// OR2T33 /// OR2T8 (11738714_s_at) / Fold change /veh OR2T12 /// OR2T33 /// OR2T8 (11738714_s_at) / RFU VCAN (11748164_a_at) / Fold change /veh VCAN (11748164_a_at) / RFU JSRP1 (11732532_at) / Fold change /veh JSRP1 (11732532_at) / RFU KRTAP10-11 (11738290_x_at) / Fold change /veh KRTAP10-11 (11738290_x_at) / RFU MYO3A (11730013_a_at) / Fold change /veh MYO3A (11730013_a_at) / RFU EBF3 (11725865_a_at) / Fold change /veh EBF3 (11725865_a_at) / RFU CAMK2N1 (11719241_x_at) / Fold change /veh CAMK2N1 (11719241_x_at) / RFU C5orf56 (11738088_a_at) / Fold change /veh C5orf56 (11738088_a_at) / RFU OLFML3 (11715873_a_at) / Fold change /veh OLFML3 (11715873_a_at) / RFU LOC100653217 /// NTM (11731650_a_at) / Fold change /veh LOC100653217 /// NTM (11731650_a_at) / RFU MAPK11 (11762145_a_at) / Fold change /veh MAPK11 (11762145_a_at) / RFU FIZ1 (11724087_x_at) / Fold change /veh FIZ1 (11724087_x_at) / RFU OASL (11726364_x_at) / Fold change /veh OASL (11726364_x_at) / RFU SOX15 (11748057_x_at) / Fold change /veh SOX15 (11748057_x_at) / RFU CD79A (11719716_a_at) / Fold change /veh CD79A (11719716_a_at) / RFU HIST1H1D (11736915_at) / Fold change /veh HIST1H1D (11736915_at) / RFU CASKIN2 (11723855_a_at) / Fold change /veh CASKIN2 (11723855_a_at) / RFU LOC730098 (11760151_x_at) / Fold change /veh LOC730098 (11760151_x_at) / RFU OR4N2 (11742367_at) / Fold change /veh OR4N2 (11742367_at) / RFU PRRT2 (11749266_a_at) / Fold change /veh PRRT2 (11749266_a_at) / RFU SNX32 (11753110_a_at) / Fold change /veh SNX32 (11753110_a_at) / RFU CDHR5 (11726645_a_at) / Fold change /veh CDHR5 (11726645_a_at) / RFU RCAN1 (11760418_a_at) / Fold change /veh RCAN1 (11760418_a_at) / RFU FAM167A (11723789_a_at) / Fold change /veh FAM167A (11723789_a_at) / RFU FAM26E (11764081_at) / Fold change /veh FAM26E (11764081_at) / RFU ISYNA1 (11749810_s_at) / Fold change /veh ISYNA1 (11749810_s_at) / RFU ACY1 (11761880_at) / Fold change /veh ACY1 (11761880_at) / RFU 11764098_at / Fold change /veh 11764098_at / RFU SAMD14 (11745864_x_at) / Fold change /veh SAMD14 (11745864_x_at) / RFU NPB (11741838_a_at) / Fold change /veh NPB (11741838_a_at) / RFU TMPRSS6 (11731388_a_at) / Fold change /veh TMPRSS6 (11731388_a_at) / RFU KRTAP10-2 (11738614_at) / Fold change /veh KRTAP10-2 (11738614_at) / RFU ARHGAP8 /// PRR5-ARHGAP8 (11727945_x_at) / Fold change /veh ARHGAP8 /// PRR5-ARHGAP8 (11727945_x_at) / RFU KRTAP5-7 /// NADSYN1 (11734609_at) / Fold change /veh KRTAP5-7 /// NADSYN1 (11734609_at) / RFU RASL12 (11751679_a_at) / Fold change /veh RASL12 (11751679_a_at) / RFU CDKN2B (11736163_a_at) / Fold change /veh CDKN2B (11736163_a_at) / RFU PRF1 (11729649_at) / Fold change /veh PRF1 (11729649_at) / RFU, ZNF638 /// ZNF638-IT1 / Fold change vs veh, ZNF638 /// ZNF638-IT1 / RFU, PANK3 / Fold change vs veh, PANK3 / RFU, SH3YL1 / Fold change vs veh, SH3YL1 / RFU, ZEB2 / Fold change vs veh, ZEB2 / RFU, NRIP1 / Fold change vs veh, NRIP1 / RFU, PTTG1IP / Fold change vs veh, PTTG1IP / RFU, CAPN2 / Fold change vs veh, CAPN2 / RFU, MED14 / Fold change vs veh, MED14 / RFU, SNORA58 / Fold change vs veh, SNORA58 / RFU, C1orf63 / Fold change vs veh, C1orf63 / RFU, LRRFIP1 / Fold change vs veh, LRRFIP1 / RFU, NDUFAF7 / Fold change vs veh, NDUFAF7 / RFU, SLC12A2 / Fold change vs veh, SLC12A2 / RFU, IBTK / Fold change vs veh, IBTK / RFU, ESF1 / Fold change vs veh, ESF1 / Fold change vs veh, TMEM50B / RFU, TAOK1 / Fold change vs veh, TAOK1 / RFU, ACBD3 / Fold change vs veh, ACBD3 / RFU, TMA16 / Fold change vs veh, TMA16 / RFU, RWDD3 / Fold change vs veh, RWDD3 / RFU, BCAT1 / Fold change vs veh, BCAT1 / RFU, EDEM3 / Fold change vs veh, EDEM3 / RFU, TMEM33 / Fold change vs veh, TMEM33 / RFU, WDR75 / Fold change vs veh, WDR75 / RFU, AHCTF1 / Fold change vs veh, AHCTF1 / RFU, TFRC / Fold change vs veh, TFRC / RFU, ZDHHC17 / Fold change vs veh, ZDHHC17 / RFU, NOM1 / Fold change vs veh, NOM1 / RFU, ARL8B / Fold change vs veh, ARL8B / RFU, ZBTB11 / Fold change vs veh, ZBTB11 / RFU, TAMM41 / Fold change vs veh, TAMM41 / RFU, KIAA1704 /// LOC100996395 / Fold change vs veh, KIAA1704 /// LOC100996395 / RFU, ING1 / Fold change vs veh, ING1 / RFU, TRMT61B / Fold change vs veh, TRMT61B / RFU, FUBP3 / Fold change vs veh, FUBP3 / RFU, TP53 / Fold change vs veh, TP53 / RFU, TNKS2 / Fold change vs veh, TNKS2 / RFU, ZFP14 / Fold change vs veh, ZFP14 / RFU, ACTR2 / Fold change vs veh, ACTR2 / RFU, PPP3R1 / Fold change vs veh, PPP3R1 / RFU, PIK3R1 / Fold change vs veh, PIK3R1 / RFU, HNRNPA1 / Fold change vs veh, HNRNPA1 / RFU, RNF170 / Fold change vs veh, RNF170 / RFU, ZNF28 / Fold change vs veh, ZNF28 / RFU, RNGTT / Fold change vs veh, RNGTT / RFU, OGT / Fold change vs veh, OGT / RFU, BRD1 / Fold change vs veh, BRD1 / RFU, MARS / Fold change vs veh, MARS / RFU, ZNF655 / Fold change vs veh, ZNF655 / RFU, FAHD1 / Fold change vs veh, FAHD1 / RFU, BDP1 / Fold change vs veh, BDP1 / RFU, LRRCC1 / Fold change vs veh, LRRCC1 / RFU, ARID1A / Fold change vs veh, ARID1A / RFU, ZNF146 / Fold change vs veh, ZNF146 / RFU, ZNF330 / Fold change vs veh, ZNF330 / RFU, GPN3 / Fold change vs veh, GPN3 / RFU, C9orf123 / Fold change vs veh, C9orf123 / RFU, N4BP2L2 / Fold change vs veh, N4BP2L2 / RFU, ARFIP1 / Fold change vs veh, ARFIP1 / RFU, FAM179B / Fold change vs veh, FAM179B / RFU, BCL10 / Fold change vs veh, BCL10 / RFU, UHRF1BP1L / Fold change vs veh, UHRF1BP1L / RFU, BET1 / Fold change vs veh, BET1 / RFU, CNOT2 / Fold change vs veh, CNOT2 / RFU, ZNF268 / Fold change vs veh, ZNF268 / Fold change vs veh, ZNF507 / RFU, DGCR2 / Fold change vs veh, DGCR2 / RFU, WDSUB1 / Fold change vs veh, WDSUB1 / Fold change vs veh, HSP90B1 /// MIR3652 / RFU, ADSS / Fold change vs veh, ADSS / RFU, GK / Fold change vs veh, GK / RFU, ZNF148 / Fold change vs veh, ZNF148 / RFU, TAF9 / Fold change vs veh, TAF9 / RFU, SLC1A5 / Fold change vs veh, SLC1A5 / RFU, SLMO2 / Fold change vs veh, SLMO2 / RFU, ABCC4 / Fold change vs veh, ABCC4 / RFU, LOC101060439 /// RAP1B / Fold change vs veh, LOC101060439 /// RAP1B / RFU, RFX7 / Fold change vs veh, RFX7 / RFU, GTPBP10 / Fold change vs veh, GTPBP10 / RFU, CNEP1R1 / Fold change vs veh, CNEP1R1 / RFU, BIVM-ERCC5 /// ERCC5 / Fold change vs veh, BIVM-ERCC5 /// ERCC5 / RFU, ILF3 / Fold change vs veh, ILF3 / RFU 11762660_at / Fold change /veh 11762660_at / RFU VCAN (11757783_s_at) / Fold change /veh VCAN (11757783_s_at) / RFU DDX43 (11728927_at) / Fold change /veh DDX43 (11728927_at) / RFU KRT8 (11758188_x_at) / Fold change /veh KRT8 (11758188_x_at) / RFU NKD1 (11759106_at) / Fold change /veh NKD1 (11759106_at) / RFU SRD5A1 (11742802_a_at) / Fold change /veh SRD5A1 (11742802_a_at) / RFU TPSAB1 /// TPSB2 (11721975_s_at) / Fold change /veh TPSAB1 /// TPSB2 (11721975_s_at) / RFU GSTM3 (11746129_a_at) / Fold change /veh GSTM3 (11746129_a_at) / RFU IL23R (11737362_x_at) / Fold change /veh IL23R (11737362_x_at) / RFU TMEM51 (11727254_a_at) / Fold change /veh TMEM51 (11727254_a_at) / RFU PIWIL2 (11732686_x_at) / Fold change /veh PIWIL2 (11732686_x_at) / RFU ORM1 (11744905_x_at) / Fold change /veh ORM1 (11744905_x_at) / RFU CCDC152 (11743942_at) / Fold change /veh CCDC152 (11743942_at) / RFU ECM1 (11717891_a_at) / Fold change /veh ECM1 (11717891_a_at) / RFU IL23R (11748794_a_at) / Fold change /veh IL23R (11748794_a_at) / RFU TNFAIP8L3 (11732012_x_at) / Fold change /veh TNFAIP8L3 (11732012_x_at) / RFU MBOAT4 (11741988_at) / Fold change /veh MBOAT4 (11741988_at) / RFU 11764193_at / Fold change /veh 11764193_at / RFU TMEM53 (11763286_at) / Fold change /veh TMEM53 (11763286_at) / RFU MAGEB2 (11727129_at) / Fold change /veh MAGEB2 (11727129_at) / RFU TMEM200A (11744735_a_at) / Fold change /veh TMEM200A (11744735_a_at) / RFU CCDC152 (11751479_a_at) / Fold change /veh CCDC152 (11751479_a_at) / RFU FAM211A (11726209_a_at) / Fold change /veh FAM211A (11726209_a_at) / RFU RGS16 (11746705_a_at) / Fold change /veh RGS16 (11746705_a_at) / RFU VCAN (11755009_s_at) / Fold change /veh VCAN (11755009_s_at) / RFU RHOB (11743442_s_at) / Fold change /veh RHOB (11743442_s_at) / RFU RGS16 (11720943_a_at) / Fold change /veh RGS16 (11720943_a_at) / RFU RGS16 (11720944_at) / Fold change /veh RGS16 (11720944_at) / RFU, VPS4B / Fold change vs veh, VPS4B / RFU, CREB1 / Fold change vs veh, CREB1 / RFU, DNAJC13 / Fold change vs veh, DNAJC13 / RFU, GNAQ / Fold change vs veh, GNAQ / RFU, CDK5R1 / Fold change vs veh, CDK5R1 / RFU, ZRANB3 / Fold change vs veh, ZRANB3 / RFU, CUL4A / Fold change vs veh, CUL4A / RFU, CCNY / Fold change vs veh, CCNY / RFU, UFL1 / Fold change vs veh, UFL1 / RFU, COG3 / Fold change vs veh, COG3 / RFU, DIAPH2 / Fold change vs veh, DIAPH2 / RFU, SKA2 / Fold change vs veh, SKA2 / RFU, AFF3 / Fold change vs veh, AFF3 / RFU, LMF1 / Fold change vs veh, LMF1 / RFU, IPO11 / Fold change vs veh, IPO11 / RFU, DFFB / Fold change vs veh, DFFB / RFU, FOXP1 / Fold change vs veh, FOXP1 / RFU, CARD8 / Fold change vs veh, CARD8 / RFU, STRN3 / Fold change vs veh, STRN3 / RFU, ADK / Fold change vs veh, ADK / RFU, RASSF2 / Fold change vs veh, RASSF2 / RFU, WIPF1 / Fold change vs veh, WIPF1 / RFU, LARP1B / Fold change vs veh, LARP1B / RFU, RASA1 / Fold change vs veh, RASA1 / RFU, RB1 / Fold change vs veh, RB1 / RFU, PPFIA1 / Fold change vs veh, PPFIA1 / RFU, MAT2A / Fold change vs veh, MAT2A / RFU, CCT5 / Fold change vs veh, CCT5 / RFU, WDR92 / Fold change vs veh, WDR92 / RFU, CUX1 / Fold change vs veh, CUX1 / RFU, TTC7A / Fold change vs veh, TTC7A / RFU, TMEM135 / Fold change vs veh, TMEM135 / RFU, DEPTOR / Fold change vs veh, DEPTOR / RFU, CPM / Fold change vs veh, CPM / RFU, DNAJB6 / Fold change vs veh, DNAJB6 / RFU, CACNA2D3 / Fold change vs veh, CACNA2D3 / RFU, DTX4 / Fold change vs veh, DTX4 / RFU, TFCP2 / Fold change vs veh, TFCP2 / RFU, GMCL1 /// GMCL1P1 / Fold change vs veh, GMCL1 /// GMCL1P1 / RFU, AEBP2 / Fold change vs veh, AEBP2 / RFU, SNHG1 /// SNORD22 /// SNORD25 /// SNORD26 /// SNORD27 /// SNORD28 /// SNORD29 /// SNORD31 / Fold change vs veh, SNHG1 /// SNORD22 /// SNORD25 /// SNORD26 /// SNORD27 /// SNORD28 /// SNORD29 /// SNORD31 / Fold change (Aza/veh), C12orf56 (ProbeSet 11735607_a_at) / Fold change (ACY-1035/veh), C12orf56 (ProbeSet 11735607_a_at) / Fold change (Aza/veh), FGFR1OP (ProbeSet 11751329_s_at) / Fold change (ACY-1035/veh), FGFR1OP (ProbeSet 11751329_s_at) / Fold change (Aza/veh), VPS36 (ProbeSet 11739960_a_at) / Fold change (ACY-1035/veh), VPS36 (ProbeSet 11739960_a_at) / RFU SYPL1 (11715823_x_at) / Fold change /veh SYPL1 (11715823_x_at) / RFU IGFBP7 (11715501_s_at) / Fold change /veh IGFBP7 (11715501_s_at) / RFU REEP3 (11722064_at) / Fold change /veh REEP3 (11722064_at) / RFU IGLL1 (11728026_x_at) / Fold change /veh IGLL1 (11728026_x_at): dose or concentration left out as unconfirmed
Settings: ProbeSet 11764057_s_at; LIST B

SMILES: Nc1ccc(-c2cccs2)cc1NC(=O)c1ccc2c(c1)cc(C1CC1)n2CCN1CCOCC1 [ACY-1035]
- RFU, C1orf63: 108.16 RFU

Reference: paper PMC5218480 (PLoS ONE, 2017)
